Data on four molecules can be found in US5100909A, “Acetylenic imidazoles having central nervous system activity” (The Upjohn Company, priority 1991, dated 1992).

“And” between values parts separate entries of the source, which are not always exact repeats. Identical values can stand only once. Like-named read-outs stand apart in the source and are kept apart here.

The conditions of series [1]: U.S. Pat. No. 3,925,411; cited from earlier work.
The target of series [2] is CNS cholinergic receptor. Nature of the series: Cholinergic receptor binding assay, tritiated oxotremorine M ligand. The settings on record: read-out: CNS Cholinergic Receptor Binding Assays Ki (nM) Oxotremorine.
The test system of series [3] is HCl-induced writhing in CF1 mice. Nature of the series: Analgesic activity, HCl writhing protection in mice. The series is classed as in vivo. Conditions: Mus musculus, sc, 0.25 h, read-out: CNS Id (ED50 mg/kg) HCl Writh. Protect. As for the experimental part: For determination of analgesic activity, the test compound was injected subcutaneously into a group of four CF1 mice. Thirty minutes later the mice were injected i.p. with 0.15% HCl, 10 ml./kg. Mice are then placed in plastic boxes and observed for fifteen minutes to record the number of animals failing to writhe.

Series [4] concerns the target CNS cholinergic receptor. The series is classed as binding. The settings on record: tritiated quinuclidine benzylate; read-out: CNS Cholinergic Receptor Binding Assays Ki (nM) QNB.
The test system of series [5] is oxotremorine-induced body tremor in mice. Nature of the series: Oxotremorine antagonist assay (body tremor) in mice. The format is in vivo. The settings on record: Mus musculus, ip, read-out: Oxot. Antagonist Tremor (ED50). As for the experimental part: Oxotremorine antagonist assays were performed on groups of six mice weighing 18-22 g. Each was dosed intraperitoneally with the test compound prepared in 0.25% methylcellulose and were placed in individual cages. Twenty minutes later the mice were injected subcutaneously with 0.5 mg/kg of oxotremorine dissolved in saline. Ten minutes later the mice were scored for body tremor. Doses of the compound under study began at 100 mg/kg and were decreased at a 0.5 log interval until no responders were obtained.

Series [6] concerns scopolamine-induced amnesia in mice. Nature of the series: Antagonism of amnesia produced by scopolamine, one trial step through passive avoidance. The format is in vivo, mouse. Conditions: i.p. test compound, scopolamine hydrobromide 1 mg/kg s.c.; retention 24 hrs. The text has this: For antagonism of amnesia produced by scopolamine a one trial, step through passive avoidance paradigm was used. In this procedure a mouse was placed on a square platform adjoining darkened chamber. The mouse could enter the chamber through a hole above the platform. Following placement on the platform, the mouse was enclosed by a clear plexiglas cover which mildly restricted movement, limiting the animal to turning around and partial rearing. A sliding door was opened after this, exposing the entrance to the chamber. A timer was started at the same time the door was opened, in order to record latency to enter the chamber. Upon complete entry into the darkened box, the door was closed behind the mouse and a 1 mA, 2 sec, direct current shock applied to the feet of the mouse through the grid floor. The mouse was immediately removed from the chamber and returned to a 24 hr group holding cage.
Drug testing involved intraperitoneal injection of the test compound followed 15 min later by subcutaneous injection of 1 mg/kg scopolamine hydrobromide. […] The latency for each mouse to enter the chamber was recorded, with a cut-off at 180 sec.
Median group latencies to enter the chamber during both training and testing were recorded and a Wilcoxon rank sum test applied to data comparing the parallel "scopolamine only" group with all drug combination groups on testing. […]

A further series relates to laboratory animals. The settings on record: by a cholinergic mechanism at extremely low doses; cited from earlier work.
Setting [7] is: i.p. test compound, 20 min before oxotremorine 0.5 mg/kg s.c., mice.

Take `O=C1CCCN1CCC#CCN1CCCC1` [N-(5-pyrrolidino-3-pentynyl)-pyrrolidin-2-one]: in series [1], the “half life compared with prior oxotremorine compounds” value is “increased half life”.
Regarding `CC(=O)N(C)C(C)C#CCn1ccnc1C` (centres unmarked) [Compound 15, N-[4-(2-Methyl-1H-imidazol-1-yl)-1-methyl-2-butynyl]-N-methylacetamide], the results for the Ki on CNS cholinergic receptor [2] and at CNS cholinergic receptor [4] were 1.6 nM and 19 nM, respectively. Moreover, the ED50 in series [3] (s.c. test compound, 30 min before 0.15% HCl i.p., CF1 mice) is more than 50 mg/kg; in series [5] (setting [7]), 11.8 mg/kg. For the same molecule, the “antagonism of amnesia produced by scopolamine” value in series [6] is reported as “most active”.
With `O=C1CCCN1CC#CCN1CCCC1` [Oxotremorine, N-(4-pyrrolidino-2-butynyl)-pyrrolidin-2-one, reference compound], the Ki (commonly a measure of affinity in units of concentration, obtained from inhibition or displacement) was 0.4 nM and 0.5 nM at CNS cholinergic receptor [2]; 220 nM on CNS cholinergic receptor [4]. In addition, the ED50 in series [3] worked out at 0.025 mg/kg; in series [5], 0.11 mg/kg. Besides, the “tremors and spasticity in laboratory animals” value in the series with laboratory animals was “induces tremors and spasticity in laboratory animals”.
In the case of `CN(C)C(=O)N(C)CC#CCn1ccnc1` [Compound 24, [4-(1H-Imidazol-1-yl)-2-butynyl]trimethyl urea], on CNS cholinergic receptor [2], the Ki was 34 nM. Moreover, the ED50 in series [5] (setting [7]) was more than 100 mg/kg. Further, the “antagonism of amnesia produced by scopolamine” value in series [6] is “most active”.
